Source: patent publication US20100196915A1, “Method of Detecting Oncogenesis of Hematopoietic Cells” (UNIVERSITY OF SOUTH FLORIDA, priority 2007, published 2010)

Tests used:
Format in all cases: cell-based
[1] = system: 32D cells transformed with IL-27R; assay: Cell cycle profile by flow cytometry of PI-stained cells; conditions: after 24 hr of treatment, FIG. 3(B)
Experimental: (§1) 32D cells were washed twice with RPMI containing 0.1% BSA and incubated in the same medium with either 0.1% DMSO, 0.5 μM or 2 μM JAK inhibitor I (EMD Biosciences/Calbiochem) for 3 hours before lysis. For cell growth and viability, cells were plated at a concentration of 2×10^5/ml in RPMI/10% FBS and either 0.1% DMSO or 0.5 μM JAK inhibitor I. Cell growth and viability were determined by trypan blue exclusion. After 24 hr of JAK inhibitor I treatment, the percentage of apoptotic cells and cell cycle profiles were determined by flow cytometry. See supporting information.
(§2) Flow Cytometry: Apoptosis and Cell Cycle Analysis. The percentage of apoptotic cells after 24 h JAK inhibitor I treatment was determined by flow cytometric analysis of annexin V-fluorescein (BD Biosciences) binding. […] Four-hundred microliters of 1× binding buffer was added to the samples and the cells were analyzed by flow cytometry. Flow cytometric analysis was performed on a FACS Scan instrument with CellQuest software (BD Biosciences) and data obtained were analyzed with FlowJo software (Tree Star). Cell cycle profiles after 24 h JAK inhibitor I treatment were determined by flow cytometric analysis of PI-stained cells. […] Stained cells were then analyzed by flow cytometry using a FACS Scan with CellQuest software and analyzed with FlowJo software (Tree Star). […]

[2] = system: JAK family kinases; assay: Immunoblot of STAT1, STAT3, STAT5 and ERK1/2 phosphorylation induced by IL-27R; conditions: 0.5 μM or 2 μM, 3 hours, FIG. 5
Experimental: Cells were washed in PBS and lysed in lysis buffer (25 mM Tris pH7.4, 150 mM NaCl, 25 mM NaF, 1% Triton-X100, 1 mM sodium vanadate, 2 mM sodium pyrophosphate, 10 μg/ml leupeptin, 2 μg/ml aprotinin, and 1 mM PMSF). Protein concentrations were determined by BCA protein assay kit (Pierce Biotechnology), and equal amounts of protein were analyzed by SDS-PAGE. Primary antibodies used in this study include: IL-27R (TCCR) (C-term) (Sigma), phospho-(P-) STAT1(Y701), P-STAT3(Y705), P-JAK1(Y1022/1023), P-JAK2(Y1007/1008), P-ERK(T202/Y204), JAK1, JAK2 (Cell Signaling Technology), P-STAT5(Y694) (BD Transduction Laboratories), STAT1, STAT3, STAT5, and ERK1 (Santa Cruz Biotechnology). Immunoblots were developed using ECL Western Blotting Substrate (Pierce Biotechnology).
32D cells were washed twice with RPMI containing 0.1% BSA and incubated in the same medium with either 0.1% DMSO, 0.5 μM or 2 μM JAK inhibitor I (EMD Biosciences/Calbiochem) for 3 hours before lysis. For cell growth and viability, cells were plated at a concentration of 2×10^5/ml in RPMI/10% FBS and either 0.1% DMSO or 0.5 μM JAK inhibitor I. Cell growth and viability were determined by trypan blue exclusion. After 24 hr of JAK inhibitor I treatment, the percentage of apoptotic cells and cell cycle profiles were determined by flow cytometry. See supporting information. […]

[3] = system: 32D cells transformed with IL-27R; assay: Apoptosis by annexin V binding, flow cytometry; conditions: after 24 hr of treatment, FIG. 4(B)
Experimental: as §1, §2

[4] = system: 32D cells transformed with IL-27R; assay: Cell growth and viability by trypan blue exclusion, JAK inhibitor I studies
Experimental: as §1
The role of JAK family kinases in transformation by IL-27R was addressed by culturing 32D/IL-27R transformed cells with the pan-JAK inhibitor, JAK inhibitor I (Thompson, J. E., et al., Photochemical preparation of a pyridone containing tetracycle: a Jak protein kinase inhibitor. Bioorg. Med. Chem. Lett., 2002 Apr. 22; 12(8):1219-23). Cells transformed with IL-27R were cultured in the presence of 0.1% DMSO or 0.5 μM JAK inhibitor I on day 0. […] Cell viability, determined using trypan blue, also decreases in the presence of the inhibitor, seen in FIG. 4(A). […] Transformed 32D cells were cultured in the presence of 0.1% DMSO (lane 2), 0.5 μM (lane 3) or 2 μM (lane 4) JAK inhibitor I. Control 32D cells starved of serum/IL-3 in the presence of 0.1% DMSO for three hr is shown in lane 1. […]

[5] = system: IL-27R-expressing BaF3 cells; assay: IL-27 stimulation, P-STAT1 immunoblot; conditions: 100 ng/ml IL-27, 10 min, cells lack gp130
Experimental: (§3) To stimulate cell cultures with IL-27, 32D and BaF3 cells expressing IL-27R were washed of growth factors and incubated in RPMI medium 1640 containing 0.1% BSA for 3 h. Cells were left untreated or stimulated with 100 ng/ml recombinant human IL-27 (R&D Systems) for 10 min. 293T cells were transfected with IL-27R, JAK2-V617F, and gp130 siRNA as indicated and as described. Two days later, cells were stimulated with 100 ng/ml human IL-27 for the length of time indicated and washed with ice-cold PBS, and cell lysates were prepared and analyzed by immunoblotting as described.
(§4) Finally, while IL-27R-mediated transformation is gp130-independent, these observations still support the paradigm that IL-27-mediated signaling requires gp130 (Pflanz, S., et al., J. Immunol., 2004 Feb. 15; 172(4):2225-31). […] Cells were left untreated or stimulated with 100 ng/ml IL-27 for 10 min and cell lysates analyzed by immunoblotting for phosphorylated (P-) and total STAT1. IL-27-induced signaling (as measured by STAT1 phosphorylation) is not observed in IL-27R-expressing 32D or BaF3 cells, which lack gp130, but is seen in IL-27R-expressing 293T cells, which express gp130, data not shown. […] Two days later, cells were stimulated with 100 ng/ml IL-27 for the length of time indicated, and cell lysates were prepared and analyzed by immunoblotting for P-STAT1, total STAT1, and gp130. […]

[6] = system: IL-27R-expressing 32D cells; assay: IL-27 stimulation, P-STAT1 immunoblot; conditions: 100 ng/ml IL-27, 10 min, cells lack gp130
Experimental: as §3, §4

[7] = system: IL-27R-expressing 293T cells; assay: IL-27 stimulation and gp130 siRNA depletion, P-STAT1 immunoblot
Experimental: as §3, §4

Question: Which cell cycle arrest [1] does the source give for JAK inhibitor I here?
Answer: The cell cycle arrest was “induces a G1 as well as a G2 cell cycle arrest”.

Question: What about the “number of cells in S-phase” value [1] of the same molecule?
Answer: Its value is “dramatic decrease”.

Question: And the ERK1/2 activation [2]?
Answer: Its ERK1/2 activation is “prevents”.

Question: What about the “STAT1, -3 and -5 phosphorylation induced by IL-27R” value [2] of the same molecule?
Answer: Its value is “blocks”.

Question: What about the “apoptosis (annexin V binding)” value [3] of the same molecule?
Answer: The value was “induction of apoptosis”.

Question: And the cell growth ([4]; 0.5 μM JAK inhibitor I vs 0.1% DMSO, from day 0, FIG. 3(A))?
Answer: Its cell growth is “the growth of these cells ceases”.

Question: What about the cell viability ([4]; 0.5 μM JAK inhibitor I, trypan blue, FIG. 4(A)) of the same molecule?
Answer: The cell viability was “decreases”.

B1: IL-27: recombinant human IL-27 (R&D Systems), cytokine used to stimulate cells (protein, UniProt Q8NEV9 29-243; Q14213 21-229, looked up)
Interleukin-27 subunit alpha: FPRPPGRPQLSLQELRREFTVSLHLARKLLSEVRGQAHRFAESHLPGVNLYLLPLGEQLPDVSLTFQAWRRLSDPERLCFISTTLQPFHALLGGLGTQGRWTNMERMQLWAMRLDLRDLQRHLRFQVLAAGFNLPEEEEEEEEEEEEERKGLLPGALGSALQGPAQVSWPQLLSTYRLLHSLELVLSRAVRELLLLSKAGHSVWPLGFPTLSPQP
Interleukin-27 subunit beta: RKGPPAALTLPRVQCRASRYPIAVDCSWTLPPAPNSTSPVSFIATYRLGMAARGHSWPCLQQTPTSTSCTITDVQLFSMAPYVLNVTAVHPWGSSSSFVPFITEHIIKPDPPEGVRLSPLAERQLQVQWEPPGSWPFPEIFSLKYWIRYKRQGAARFHRVGPIEATSFILRAVRPRARYYVQVAAQDLTDYGELSDWSLPATATMSLGK
Question: For B1, which “IL-27-induced signaling (STAT1 phosphorylation)” value (“IL-27-induced signaling” for short) [5] is on record?
Answer: Its value is “not observed”.

Question: What about the “IL-27-induced signaling” value [6] of the same molecule?
Answer: The value was “not observed”.

Question: What about the “IL-27R/JAK2-V617F-mediated activation of STAT1” value ([7]; 100 ng/ml IL-27, 293T cells transfected with IL-27R and JAK2-V617F) of the same molecule?
Answer: Its value is “not enhanced”.

Question: And the “IL-27-induced signaling” value ([7]; 100 ng/ml IL-27, cells express gp130)?
Answer: The value was “is seen”.
